The results in this text go back to patent US9636336B2, “Aminoester derivatives” (CHIESI FARMACEUTICI S.p.A., priority 2015, dated 2017).

Each structure is given as a SMILES string. Like-named read-outs stand apart in the source and are kept apart here.

Test [1] concerns the target Human M3 receptor membranes (Homo sapiens (Human), UniProt P20309). Description: M3 Receptor radioligand binding assay. As for the experimental part:
M3 Receptor Radioligand Binding Assay:
The assay is carried out in 96-well polypropylene plates in a volume of 250 μl. […] The final assay concentration of DMSO is 0.5% (v/v). The plates are sealed and incubated for 2 h at room temperature on an orbital shaker (slow speed). Membranes are harvested onto 96-well unifilter GF/C filter plates pre-treated with 0.5% polyethyleneimine (v/v), using a filter manifold, washed four times with 200 μl of assay buffer. The plates are dried before addition of 50 μl of microscint-0, sealed then read in a Trilux Microbeta scintillation counter. IC50 values are determined from competition curves using a non-linear curve fitting program. Ki values are calculated from IC50 values by the Cheng and Prusoff equation.

The target in the next test is Human recombinant PDE4B2 (Homo sapiens (Human), UniProt Q07343). Put plainly: PDE4B2 HTRF assay. In kind it is biochemical. The protocol: PDE4B2 activity is detected using the LANCE Ultra cAMP homogeneous time resolved fluorescence resonance energy transfer (TR-FRET) assay from Perkin Elmer. The assay is based on the competition between the europium (Eu) chelate-labeled cAMP tracer and sample cAMP for binding sites on cAMP-specific monoclonal antibodies (mAb) labelled with the ULight™ dye. The assay is carried out in 384-well low volume plates in a volume of 10 μl. Human recombinant PDE4B2 (80 pM) is incubated for 2 h with 3 nM cAMP in buffer containing 1×HBSS, 5 mM HEPES, 3 mM MgCl2, 0.1% BSA, pH 7.4 with or without test compounds. The enzymatic reactions are efficiently stopped by the addition of 500 μM IBMX present in the combined Stop/Detection buffer containing europium (Eu) chelate-labeled cAMP tracer and cAMP-specific monoclonal antibodies (mAb) labelled with the ULight™ dye. […] IC50 values are determined from competition curves using a non-linear curve fitting program.

[2] abbreviates: M3 Receptor radioligand binding assay, read-out: M3 IC50 activity.
Setting [3] is: PDE4B2 HTRF assay, read-out: PDE4B2 IC50 activity.

Sequence of Human M3 receptor membranes (P20309 whole entry): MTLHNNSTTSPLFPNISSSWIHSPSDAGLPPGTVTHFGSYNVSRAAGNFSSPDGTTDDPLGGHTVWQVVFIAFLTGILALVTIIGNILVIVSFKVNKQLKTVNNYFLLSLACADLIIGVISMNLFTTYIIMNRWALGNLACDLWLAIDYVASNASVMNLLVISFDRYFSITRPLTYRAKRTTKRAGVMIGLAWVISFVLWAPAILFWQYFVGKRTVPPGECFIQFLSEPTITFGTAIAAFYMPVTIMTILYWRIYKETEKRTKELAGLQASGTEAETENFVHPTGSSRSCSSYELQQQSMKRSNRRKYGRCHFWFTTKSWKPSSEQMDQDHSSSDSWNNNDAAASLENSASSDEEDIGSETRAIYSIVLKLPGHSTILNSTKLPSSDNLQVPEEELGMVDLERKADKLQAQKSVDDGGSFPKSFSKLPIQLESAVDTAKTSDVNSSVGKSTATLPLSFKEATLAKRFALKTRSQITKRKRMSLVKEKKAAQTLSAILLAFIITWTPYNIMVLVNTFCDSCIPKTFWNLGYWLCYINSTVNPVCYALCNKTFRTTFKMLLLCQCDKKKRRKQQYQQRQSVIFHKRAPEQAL
Sequence of Human recombinant PDE4B2 (Q07343 other isoform, or with tags, fused parts or gaps): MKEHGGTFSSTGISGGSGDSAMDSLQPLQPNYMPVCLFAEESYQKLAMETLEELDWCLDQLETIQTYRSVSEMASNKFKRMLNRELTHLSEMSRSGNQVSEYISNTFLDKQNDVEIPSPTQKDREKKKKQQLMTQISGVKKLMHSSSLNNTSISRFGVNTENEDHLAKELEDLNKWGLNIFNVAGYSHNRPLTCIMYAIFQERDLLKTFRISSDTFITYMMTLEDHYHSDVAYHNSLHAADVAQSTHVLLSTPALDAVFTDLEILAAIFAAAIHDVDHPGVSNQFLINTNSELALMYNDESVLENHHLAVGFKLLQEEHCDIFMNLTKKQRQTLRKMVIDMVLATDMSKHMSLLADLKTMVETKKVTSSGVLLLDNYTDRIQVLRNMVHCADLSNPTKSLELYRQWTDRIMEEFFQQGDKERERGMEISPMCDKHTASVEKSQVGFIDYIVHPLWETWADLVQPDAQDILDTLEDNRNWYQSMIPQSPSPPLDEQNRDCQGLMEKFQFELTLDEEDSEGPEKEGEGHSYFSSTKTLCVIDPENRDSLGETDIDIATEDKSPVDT

The term IC50 denotes the concentration that inhibits the measured activity by half. With `COc1ccc([C@H](Cc2c(Cl)c[n+]([O-])cc2Cl)OC(=O)c2ccc(CNC(C(=O)OCC3(C)CCN(C)CC3)c3ccccc3)s2)cc1OC` (mixture of isomers) [Example 2, [(1S)-2-(3,5-dichloro-1-oxido-pyridin-1-ium-4-yl)-1-(3,4-dimethoxyphenyl)ethyl]5-[[[2-[(1,4-dimethyl-4-piperidyl)methoxy]-2-oxo-1-phenyl-ethyl]amino]methyl]thiophene-2-carboxylate], the values for the IC50 (in test [1] (setting [2]); at Human recombinant PDE4B2 (setting [3])) were 10 to 100 nM and 1 to 10 nM, respectively.
For `COc1ccc([C@H](Cc2c(Cl)c[n+]([O-])cc2Cl)OC(=O)c2ccc(CNC(CO)(C(=O)OCC3CCN(C)CC3)c3cccs3)s2)cc1OC` (mixture of isomers) [Example 37, [(1S)-2-(3,5-dichloro-1-oxido-pyridin-1-ium-4-yl)-1-(3,4-dimethoxyphenyl)ethyl]5-[[[1-(hydroxymethyl)-2-[(1-methyl-4-piperidyl)methoxy]-2-oxo-1-(2-thienyl)ethyl]amino]methyl]thiophene-2-carboxylate] the same measures were 1 to 10 nM and under 1 nM.
Regarding `CN1CCC(COC(=O)C(NCc2ccc(C(=O)O[C@@H](Cc3c(Cl)c[n+]([O-])cc3Cl)c3ccc(OC(F)F)c(OCC4CC4)c3)s2)c2cccc(O)c2)CC1` (mixture of isomers) [Example 46, [(1S)-1-[3-(cyclopropylmethoxy)-4-(difluoromethoxy)phenyl]-2-(3,5-dichloro-1-oxido-pyridin-1-ium-4-yl)ethyl]5-[[[1-(3-hydroxyphenyl)-2-[(1-methyl-4-piperidyl)methoxy]-2-oxo-ethyl]amino]methyl]thiophene-2-carboxylate], the IC50 (in test [1] (setting [2]); at Human recombinant PDE4B2 (setting [3])) was 1 to 10 nM throughout.
As for `COc1ccc([C@H](Cc2c(Cl)c[n+]([O-])cc2Cl)OC(=O)c2ccc(CNC(C(=O)OCC3CCN(C(C)C)CC3)c3ccccc3)s2)cc1OC` (single isomer, unassigned) [Example 42], the IC50 in test [1] (setting [2]) lay in the range of 10 to 100 nM; on Human recombinant PDE4B2 (setting [3]), 1 to 10 nM.
Turning to `COc1ccc([C@H](Cc2c(Cl)c[n+]([O-])cc2Cl)OC(=O)c2ccc(CNCC(O)(C(=O)OCC3CCN(C)CC3)c3cccs3)s2)cc1OC` (stereo partly drawn) [Example 1, [(1S)-2-(3,5-dichloro-1-oxido-pyridin-1-ium-4-yl)-1-(3,4-dimethoxyphenyl)ethyl]5-[[[2-hydroxy-3-[(1-methyl-4-piperidyl)methoxy]-3-oxo-2-(2-thienyl)propyl]amino]methyl]-thiophene-2-carboxylate], the IC50 is 10 to 100 nM in test [1] and 1 to 10 nM at Human recombinant PDE4B2.
Take `COc1ccc([C@H](Cc2c(Cl)c[n+]([O-])cc2Cl)OC(=O)c2ccc(CNC(C(=O)OCC3(F)CCN(C)CC3)c3ccccc3)s2)cc1OC` (stereo partly drawn) [Example 3, [(1S)-2-(3,5-dichloro-1-oxido-pyridin-1-ium-4-yl)-1-(3,4-dimethoxyphenyl)ethyl] 5-[[[2-[(4-fluoro-1-methyl-4-piperidyl)methoxy]-2-oxo-1-phenyl-ethyl]amino]methyl]thiophene-2-carboxylate]: the IC50 on Human recombinant PDE4B2 (setting [3]) is 1 to 10 nM.
`COc1ccc(C(Cc2c(Cl)c[n+]([O-])cc2Cl)OC(=O)c2ccc(CNC(C(=O)OCC3CCN(C)CC3)c3ccccc3)s2)cc1OC1CCCC1` (stereo not drawn) [Example 5, [1-[3-(cyclopentoxy)-4-methoxy-phenyl]-2-(3,5-dichloro-1-oxido-pyridin-1-ium-4-yl)ethyl] 5-[[[2-[(1-methyl-4-piperidyl)methoxy]-2-oxo-1-phenyl-ethyl]amino]methyl]thiophene-2-carboxylate]: the IC50 (in test [1] (setting [2]); on Human recombinant PDE4B2 (setting [3])) was 1 to 10 nM in each case.
For the molecule `COc1ccc(C(Cc2c(Cl)c[n+]([O-])cc2Cl)OC(=O)c2ccc(CNC(C(=O)OCC3CCN(C)CC3)c3ccccc3)s2)cc1OC1CCCC1` (stereo not drawn) [Example 6, [1-[3-(cyclopentoxy)-4-methoxy-phenyl]-2-(3,5-dichloro-1-oxido-pyridin-1-ium-4-yl)ethyl] 5-[[[2-[(1-methyl-4-piperidyl)methoxy]-2-oxo-1-phenyl-ethyl]amino]methyl]thiophene-2-carboxylate], the IC50 in test [1] (setting [2]) lay in the range of 1 to 10 nM.
Turning to `COc1ccc([C@H](Cc2c(Cl)c[n+]([O-])cc2Cl)OC(=O)c2ccc(CNCC(C(=O)OCC3CCN(C)CC3)c3ccccc3)s2)cc1OC` (stereo partly drawn) [Example 7, [(1S)-2-(3,5-dichloro-1-oxido-pyridin-1-ium-4-yl)-1-(3,4-dimethoxyphenyl)ethyl]5-[[[3-[(1-methyl-4-piperidyl)methoxy]-3-oxo-2-phenyl-propyl]amino]methyl]thiophene-2-carboxylate], the IC50 in test [1] (setting [2]) was 10 to 100 nM; at Human recombinant PDE4B2 (setting [3]) it was 1 to 10 nM.
As for `CCN1CCC(COC(=O)C(NCc2ccc(C(=O)O[C@@H](Cc3c(Cl)c[n+]([O-])cc3Cl)c3ccc(OC)c(OC)c3)s2)c2ccccc2)CC1` (stereo partly drawn) [Example 19], on Human recombinant PDE4B2 (setting [3]), the IC50 is under 1 nM.
With `COc1ccc([C@H](Cc2c(Cl)c[n+]([O-])cc2Cl)OC(=O)c2ccc(CNC(C(=O)OCCN3CCCC3)c3ccccc3)s2)cc1OC` (stereo partly drawn) [Example 21, [(1S)-2-(3,5-dichloro-1-oxido-pyridin-1-ium-4-yl)-1-(3,4-dimethoxyphenyl)ethyl] 5-[[[2-oxo-1-phenyl-2-(2-pyrrolidin-1-ylethoxy)ethyl]amino]methyl]thiophene-2-carboxylate], at Human recombinant PDE4B2 (setting [3]), the IC50 fell in the range of 1 to 10 nM.
As to `COc1ccc([C@H](Cc2c(Cl)c[n+]([O-])cc2Cl)OC(=O)c2ccc(CNC(C(=O)OC[C@H]3CCCN(C)C3)c3ccccc3)s2)cc1OC` (stereo partly drawn) [Example 26, [(1S)-2-(3,5-dichloro-1-oxido-pyridin-1-ium-4-yl)-1-(3,4-dimethoxyphenyl)ethyl] 5-[[[2-[[(3S)-1-methyl-3-piperidyl]methoxy]-2-oxo-1-phenyl-ethyl]amino]methyl]thiophene-2-carboxylate], in test [1] (setting [2]), the IC50 lay in the range of 1 to 10 nM.
Turning to `COc1ccc([C@H](Cc2c(Cl)c[n+]([O-])cc2Cl)OC(=O)c2ccc(CNC(C(=O)OC[C@H]3CCCCN3C)c3ccccc3)s2)cc1OC` (stereo partly drawn) [Example 30, [(1S)-2-(3,5-dichloro-1-oxido-pyridin-1-ium-4-yl)-1-(3,4-dimethoxyphenyl)ethyl] 5-[[[2-[[(2R)-1-methyl-2-piperidyl]methoxy]-2-oxo-1-phenyl-ethyl]amino]methyl]thiophene-2-carboxylate], the IC50 in test [1] (setting [2]) is 10 to 100 nM.
Take `COc1ccc([C@H](Cc2c(Cl)c[n+]([O-])cc2Cl)OC(=O)c2ccc(CNC(C)(C(=O)OCC3CCN(C)CC3)c3ccccc3)s2)cc1OC` (stereo partly drawn) [Example 34, [(1S)-2-(3,5-dichloro-1-oxido-pyridin-1-ium-4-yl)-1-(3,4-dimethoxyphenyl)ethyl] 5-[[[1-methyl-2-[(1-methyl-4-piperidyl)methoxy]-2-oxo-1-phenyl-ethyl]amino]methyl]thiophene-2-carboxylate]: the IC50 in test [1] (setting [2]) fell in the range of 1 to 10 nM.
`COc1ccc([C@H](Cc2c(Cl)c[n+]([O-])cc2Cl)OC(=O)c2ccc(CNC(C(=O)OCC3CCN(C)CC3)c3cccc(O)c3)s2)cc1OC` (stereo partly drawn) [Example 41, [(1S)-2-(3,5-dichloro-1-oxido-pyridin-1-ium-4-yl)-1-(3,4-dimethoxyphenyl)ethyl]5-[[[1-(3-hydroxyphenyl)-2-[(1-methyl-4-piperidyl)methoxy]-2-oxo-ethyl]amino]methyl]thiophene-2-carboxylate]: in test [1] (setting [2]), the half-maximal inhibitory concentration (IC50) is 1 to 10 nM.
On to `COc1ccc(C(Cc2c(Cl)c[n+]([O-])cc2Cl)OC(=O)c2ccc(CNC(C(=O)OCC3CCN(C)CC3)c3cccc(O)c3)s2)cc1OCC1CC1` (stereo not drawn) [Example 48, [1-[3-(cyclopropylmethoxy)-4-methoxy-phenyl]-2-(3,5-dichloro-1-oxido-pyridin-1-ium-4-yl)ethyl]5-[[[1-(3-hydroxyphenyl)-2-[(1-methyl-4-piperidyl)methoxy]-2-oxo-ethyl]amino]methyl]thiophene-2-carboxylate], for which, in test [1] (setting [2]), the concentration for half-maximal inhibition (IC50) is 10 to 100 nM.
For the molecule `COc1ccc([C@H](Cc2c(Cl)c[n+]([O-])cc2Cl)OC(=O)c2ccc(CNC(C(=O)OC[C@@H]3CCCN(C)C3)c3ccccc3)s2)cc1OC` (stereo partly drawn) [Example 50, [(1S)-2-(3,5-dichloro-1-oxido-pyridin-1-ium-4-yl)-1-(3,4-dimethoxyphenyl)ethyl]5-[[[2-[[(3R)-1-methyl-3-piperidyl]methoxy]-2-oxo-1-phenyl-ethyl]amino]methyl]thiophene-2-carboxylate], the concentration for half-maximal inhibition (IC50) in test [1] (setting [2]) was in the range of 1 to 10 nM.
With `COc1ccc([C@H](Cc2c(Cl)c[n+]([O-])cc2Cl)OC(=O)c2ccc(CNC(CO)(C(=O)OC[C@@H]3CCN(C)C3)c3ccccc3)s2)cc1OC` (stereo partly drawn) [Example 116, [(1S)-2-(3,5-dichloro-1-oxido-pyridin-1-ium-4-yl)-1-(3,4-dimethoxyphenyl)ethyl] 5-[[[1-(hydroxymethyl)-2-[[(3R)-1-methylpyrrolidin-3-yl]methoxy]-2-oxo-1-phenyl-ethyl]amino]methyl]thiophene-2-carboxylate], the IC50 at Human recombinant PDE4B2 (setting [3]) lay in the range of 1 to 10 nM.
Turning to `COc1ccc([C@H](Cc2c(Cl)c[n+]([O-])cc2Cl)OC(=O)c2ccc(CNC(C(=O)OCC3CCN(C)CC3)c3ccccc3OC)s2)cc1OC` (stereo partly drawn) [Example 118], on Human recombinant PDE4B2 (setting [3]), the IC50 is under 1 nM.
As for `CCOc1cc(C(Cc2c(Cl)c[n+]([O-])cc2Cl)OC(=O)c2ccc(CNC(C(=O)OCC3CCN(C)CC3)c3cccc(O)c3)s2)ccc1OC` (stereo not drawn) [Example 120], the IC50 on Human recombinant PDE4B2 (setting [3]) was under 1 nM.
